Measurements taken from article PMC8044046 (European journal of medicinal chemistry, 2021).

What was measured:
Experiment in all cases: CellTiter Glo cell viability
Type in all cases: cell-based
[1] = tested on: A549 (HER2+) NSCLC cell line; details: read-out: IC50 (μM) A549 (HER2+); antiproliferative activity, 72 h, N=3, ±S.E
[2] = tested on: Calu-3 (HER2+) lung cancer cell line; details: read-out: IC50 (μM) Calu-3 (HER2+); antiproliferative activity, 72 h, N=3, ±S.E
MCF-7 (HER2−) cell line = details: read-out: IC50 (μM) MCF-7 (HER2−); antiproliferative activity, 72 h, N=3
[3] = tested on: BT-474 (HER2+) breast cancer cell line; details: read-out: IC50 (μM) BT-474 (HER2+); antiproliferative activity, 72 h, N=3, ±S.E

Measured: IC50

H2N-K(S-(3-amino-3(biphenyl)propionic acid)F-OH [Control]
> 100 µM: [1] | [2] | MCF-7 (HER2−) cell line | [3]
